Test results from US20230145793A1, “SUBSTITUTED PYRIMIDINE OR PYRIDINE AMINE DERIVATIVE, COMPOSITION THEREOF, AND MEDICAL USE THEREOF” (SHANGHAI HAIYAN PHARMACEUTICAL TECHNOLOGY CO., LTD., priority 2020, published 2023).

Tests used:
[1] = molecular target: T1, A2A receptor (Homo sapiens, UniProt P29274); assay: Test 1: inhibitory activity to the A2A receptor, cAMP HTRF in CHO-K1/ADORA2A/Gα15 cells, NECA 50 nM; assay type: cell-based
T1 construct: host or cells: CHO-K1 (co-expressing Gα15)
Description: (§1) Test 1: Inhibitory Activities to the A2A Receptor and the A2B Receptor CHO-K1/ADORA2A/Gα15 (GenScript, M00246) and CHO-K1/ADORA2B/Gα15 (GenScript, M00329) cells were cultured in a Ham's F-12 (Gibco, 31765092) medium containing 10% FBS, Zeocin (200 ug/mL), and Hygromycin B (100 ug/mL), or containing 10% FBS, G418 (400 ug/mL), and Hygromycin B (100 ug/mL) under culture conditions specified in the corresponding instruction. Screening procedure was as follows: 1. The cell density was adjusted with a serum-free medium to 6×10^5 cells/mL. 2. 5 uL of cell solution, 2.5 μL of NECA (Sigma, 119140-10MG), and 2.5 μL of compound solution were placed into each well of a 384-well plate (Greiner Bio-One, 784075) in sequence, the final concentration of NECA was 50 nM (CHO-K1/ADORA2A) or 10 nM (CHO-K1/ADORA2B), and the compound solution was subjected to 3-fold dilution from the final concentration of 3 uM. 3. The cells were placed still and cultured in an incubator at 37° C. for 30 min. 4. 5 μL of cAMP-d2 and 5 μL of cAMP-ab (Cisbio, 62AM4PEB) were added in sequence. 5. The 384-well plate was placed in dark at the room temperature for 1 h. 6. The plate was read (Victor X5, PerkinElmer), data were analyzed by XLfit nonlinear regression, and IC50 values of the compounds were calculated.

[2] = molecular target: T2, A2B receptor (Homo sapiens, UniProt P29275); assay: Test 1: inhibitory activity to the A2B receptor, cAMP HTRF in CHO-K1/ADORA2B/Gα15 cells, NECA 10 nM; assay type: cell-based
T2 construct: host or cells: CHO-K1 (co-expressing Gα15)
T2 sequence (P29275 1-332): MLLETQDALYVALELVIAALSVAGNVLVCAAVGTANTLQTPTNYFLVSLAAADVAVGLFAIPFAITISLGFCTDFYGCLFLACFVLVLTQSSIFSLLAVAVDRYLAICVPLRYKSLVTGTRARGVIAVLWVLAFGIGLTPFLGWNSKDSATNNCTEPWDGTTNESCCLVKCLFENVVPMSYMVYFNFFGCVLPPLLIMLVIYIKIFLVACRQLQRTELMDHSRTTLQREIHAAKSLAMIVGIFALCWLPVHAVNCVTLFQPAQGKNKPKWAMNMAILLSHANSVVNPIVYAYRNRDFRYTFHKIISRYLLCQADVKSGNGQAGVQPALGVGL
Description: as §1

T1 sequence (P29274 whole entry): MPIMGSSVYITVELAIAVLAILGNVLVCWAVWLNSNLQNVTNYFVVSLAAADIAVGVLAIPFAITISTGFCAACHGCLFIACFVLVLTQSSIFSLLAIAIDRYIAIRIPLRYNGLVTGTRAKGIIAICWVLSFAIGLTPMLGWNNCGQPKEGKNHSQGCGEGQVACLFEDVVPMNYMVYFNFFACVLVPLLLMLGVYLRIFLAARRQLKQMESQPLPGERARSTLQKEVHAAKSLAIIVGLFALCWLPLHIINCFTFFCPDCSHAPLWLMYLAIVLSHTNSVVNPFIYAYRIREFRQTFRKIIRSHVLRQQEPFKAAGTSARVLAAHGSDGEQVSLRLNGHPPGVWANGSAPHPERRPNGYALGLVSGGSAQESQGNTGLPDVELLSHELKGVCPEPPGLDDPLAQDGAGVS

| SMILES | IC50 [1] | IC50 [2] |
| --- | --- | --- |
| Cc1c(C#N)cccc1-c1nc(N)nc(-c2cn(Cc3cccc(C(C)(C)O)n3)nn2)c1F [Compound L-2] | 0.062 µM | 0.029 µM |
| CC(C)(O)c1cccc(Cn2cc(-c3nc(-c4cccc(C#N)c4)nc4c3OCC(=O)N4)nn2)n1 [Compound L-4] | 0.001 µM | 0.006 µM |
| Cc1c(C#N)cccc1-c1nc(N)c(Cl)c(-c2cn(Cc3cccn(CC(C)(C)O)c3=O)nn2)n1 [Compound L-7] | < 0.001 µM | 0.007 µM |
| Cc1c(C#N)cccc1-c1nc(N)c(Cl)c(-c2cn(Cc3cccn(C(C)C)c3=O)nn2)n1 [Compound L-8] | < 0.001 µM | 0.003 µM |
| CCc1nccc(Cn2cc(-c3nc(-c4cccc(C#N)c4C)nc(N)c3Cl)nn2)n1 [Compound L-11] | 0.001 µM | 0.014 µM |
| Cc1c(C#N)cccc1-c1nc(N)c(Cl)c(-c2cn(Cc3ccn(C4CC4)n3)nn2)n1 [Compound L-12] | < 0.001 µM | 0.004 µM |
| Cc1c(C#N)cccc1-c1nc(N)c(Cl)c(-c2cn(Cc3cccn(C)c3=O)nn2)n1 [Compound L-13] | 0.001 µM | 0.013 µM |
| Cc1c(F)cccc1-c1nc(N)c(F)c(-c2cn(Cc3cccc(C(C)(C)O)n3)nn2)n1 [Compound L-14] | 0.017 µM | 0.014 µM |
| Cc1c(C#N)cccc1-c1nc(N)c(F)c(-c2cn(Cc3cccn(C4CC4)c3=O)nn2)n1 [Compound L-17] | 0.001 µM | 0.007 µM |
| Cc1c(C#N)cccc1-c1nc(N)c(F)c(-c2cn(Cc3ccn(C4CC(F)(F)C4)n3)nn2)n1 [Compound L-19] | 0.003 µM | 0.006 µM |
| Cc1c(C#N)cccc1-c1nc(N)c(Cl)c(-c2cn(Cc3cc[nH]n3)nn2)n1 [Compound L-20] | 0.004 µM | 0.012 µM |
| Cc1c(C#N)cccc1-c1nc(N)c(F)c(-c2cn(Cc3cc(F)n(C)n3)nn2)n1 [Compound L-21] | 0.007 µM | 0.021 µM |
| Cc1c(C#N)cccc1-c1nc(N)c(Cl)c(-c2cn(Cc3cc(C(C)(C)O)[nH]n3)nn2)n1 [Compound L-22] | 0.01 µM | 0.001 µM |
| Cc1c(C#N)cccc1-c1nc(N)c(Cl)c(-c2cnn(Cc3ccn(C)n3)c2)n1 [Compound L-33] | 0.002 µM | 0.005 µM |
| Cc1c(C#N)cccc1-c1nc(N)c(Cl)c(-c2cn(Cc3ccn(C(F)F)n3)nn2)n1 [Compound L-34] | 0.002 µM | 0.008 µM |
| Cc1c(C#N)cccc1-c1nc(N)c(F)c(-c2cn(Cc3ccn(CC(C)C)n3)nn2)n1 [Compound L-36] | 0.001 µM | 0.01 µM |

| SMILES | IC50 [1] | IC50 [2] |
| --- | --- | --- |
| Cc1c(C#N)cccc1-c1nc(N)c(F)c(-c2cn(Cc3ccn(CC(F)(F)F)n3)nn2)n1 [Compound L-37] | 0.002 µM | 0.007 µM |
| Cc1c(C#N)cccc1-c1nc(N)c(F)c(-c2cn(Cc3ccn(CC4CC4)n3)nn2)n1 [Compound L-39] | 0.002 µM | 0.007 µM |
| Cc1c(C#N)cccc1-c1nc(N)c(F)c(-c2cn(Cc3cnn(C)n3)nn2)n1 [Compound L-47] | 0.011 µM | 0.024 µM |
| Cc1c(C#N)cccc1-c1nc(N)c(F)c(-c2cn(Cc3ccn(C(C)(C)CO)n3)nn2)n1 [Compound L-49] | 0.001 µM | 0.002 µM |
| Cc1c(C#N)cccc1-c1nc(N)c(F)c(-c2cn(Cc3ccn(C(C)(C)C)n3)nn2)n1 [Compound L-51] | 0.03 µM | 0.006 µM |
| Cc1c(C#N)cccc1-c1nc(N)nc(-c2cn(Cc3ccn(C)n3)nn2)c1F [Compound L-59] | 0.063 µM | 0.049 µM |
| COCc1cccc(Cn2cc(-c3nc(N)nc(-c4cccc(C#N)c4C)c3F)nn2)n1 [Compound L-60] | 0.079 µM | 0.073 µM |
| Cc1c(C#N)cccc1-c1nc(N)c(F)c(-c2cn(Cc3ccn(C(C)C)n3)nn2)n1 [Compound L-75] | < 0.001 µM | 0.0005 µM |
| Cc1c(C#N)cccc1-c1nc(N)c(F)c(-c2cn(Cc3ccn(CC(C)(C)O)n3)nn2)n1 [Compound L-76] | 0.005 µM | 0.007 µM |
| Cc1c(C#N)cccc1-c1nc(N)c(F)c(-c2cn(Cc3ccn(C4CCOC4)n3)nn2)n1 [Compound L-77] | 0.001 µM | 0.003 µM |
| COCCn1ccc(Cn2cc(-c3nc(-c4cccc(C#N)c4C)nc(N)c3F)nn2)n1 [Compound L-78] | 0.003 µM | 0.003 µM |
| Cc1c(C#N)cccc1-c1nc(N)c(F)c(-c2cn(Cc3cc(C)n(C)n3)nn2)n1 [Compound L-79] | 0.019 µM | 0.025 µM |
| Cc1c(C#N)cccc1-c1nc(N)c(F)c(-c2cn(Cc3nn(C)cc3F)nn2)n1 [Compound L-80] | 0.015 µM | 0.013 µM |
| Cc1c(C#N)cccc1-c1nc(N)c(F)c(-c2cn(Cc3ccn(CC4CCCO4)n3)nn2)n1 [Compound L-83] | 0.003 µM | 0.007 µM |
| Cc1c(C#N)cccc1-c1nc(N)c(Cl)c(-c2cn(Cc3cccc(S(C)(=O)=O)c3)nn2)n1 [Compound L-84] | 0.004 µM | 0.024 µM |
| Cc1c(C#N)cccc1-c1nc(N)c(F)c(-c2cn(Cc3ccn(C4COC4)n3)nn2)n1 [Compound L-88] | 0.002 µM | 0.008 µM |

The next lines start with the values.

| IC50 [1] | IC50 [2] | SMILES |
| --- | --- | --- |
| 0.004 µM | 0.006 µM | CC(C)(O)c1cccc(Cn2cc(-c3nc(-c4cccc(C#N)c4F)nc(N)c3F)nn2)n1 [Compound L-5] |
| 0.007 µM | 0.002 µM | Cc1c(C#N)cccc1-c1nc(N)c(F)c(-c2cn(Cc3cc[nH]n3)nn2)n1 [Compound L-27] |
| 0.009 µM | 0.008 µM | Cc1c(C#N)cccc1-c1nc(N)c(F)c(-c2cn(Cc3ccn(CC(N)=O)n3)nn2)n1 [Compound L-29] |
| < 0.001 µM | 0.001 µM | CCn1ccc(Cn2cc(-c3nc(-c4cccc(C#N)c4C)nc(N)c3F)nn2)n1 [Compound L-30] |
| 0.002 µM | 0.004 µM | Cc1c(C#N)cccc1-c1nc(N)c(F)c(-c2cn(Cc3cccc(C4(O)COC4)n3)nn2)n1 [Compound L-53] |
| 0.003 µM | 0.004 µM | Cc1c(C#N)cccc1-c1nc(N)c(F)c(-c2cn(Cc3cccc(C(C)(C)C#N)n3)nn2)n1 [Compound L-54] |
| 0.007 µM | 0.024 µM | Cc1c(C#N)cccc1-c1nc(N)c(F)c(-c2cn(Cc3cccc(C(N)=O)n3)nn2)n1 [Compound L-56] |
| 0.001 µM | 0.003 µM | COCc1cccc(Cn2cc(-c3nc(-c4cccc(C#N)c4C)nc(N)c3F)nn2)n1 [Compound L-62] |
| 0.001 µM | 0.005 µM | Cc1c(C#N)cccc1-c1nc(N)c(F)c(-c2cn(Cc3cccc(C(C)(C)CO)n3)nn2)n1 [Compound L-63] |
| 0.001 µM | 0.004 µM | Cc1c(C#N)cccc1-c1nc(N)c(F)c(-c2cn(Cc3cccc(C4(O)CCC4)n3)nn2)n1 [Compound L-64] |
| 0.005 µM | 0.022 µM | Cc1c(C#N)cccc1-c1nc(N)c(F)c(-c2cn(Cc3cccc(N4CCC(O)C4)n3)nn2)n1 [Compound L-65] |
| 0.003 µM | 0.011 µM | Cc1c(C#N)cccc1-c1nc(N)c(F)c(-c2cn(Cc3cccc(C4(O)CCCC4)n3)nn2)n1 [Compound L-66] |
| 0.002 µM | 0.011 µM | Cc1c(C#N)cccc1-c1nc(N)c(F)c(-c2cn(Cc3cccc(C(C)C)n3)nn2)n1 [Compound L-68] |
| 0.005 µM | 0.02 µM | Cc1c(C#N)cccc1-c1nc(N)c(F)c(-c2cn(Cc3cccc(N4CCOCC4)n3)nn2)n1 [Compound L-69] |
| 0.002 µM | 0.013 µM | Cc1c(C#N)cccc1-c1nc(N)c(F)c(-c2cn(Cc3cccc(CN4CCOCC4)n3)nn2)n1 [Compound L-70] |
| 0.006 µM | 0.023 µM | Cc1c(C#N)cccc1-c1nc(N)c(F)c(-c2cn(Cc3cccc(CN4CCN(C)CC4)n3)nn2)n1 [Compound L-71] |
| 0.004 µM | 0.014 µM | Cc1c(C#N)cccc1-c1nc(N)c(F)c(-c2cn(Cc3cccc(N4CCN(C)CC4)n3)nn2)n1 [Compound L-72] |
| 0.003 µM | 0.005 µM | Cc1c(C#N)cccc1-c1nc(N)c(F)c(-c2cn(Cc3cccc(C(F)F)n3)nn2)n1 [Compound L-73] |
| 0.004 µM | 0.023 µM | Cc1c(C#N)cccc1-c1nc(N)c(F)c(-c2cn(Cc3cccc(C(C)(O)C(F)(F)F)n3)nn2)n1 [Compound L-81] |
| 0.002 µM | 0.004 µM | CCC(C)(O)c1cccc(Cn2cc(-c3nc(-c4cccc(C#N)c4C)nc(N)c3F)nn2)n1 [Compound L-85] |
| < 0.001 µM | 0.001 µM | COC(C)c1cccc(Cn2cc(-c3nc(-c4cccc(C#N)c4C)nc(N)c3F)nn2)n1 [Compound L-86] |
